In ChEMBL document CHEMBL2074027, “Polyaromatic alkaloids from marine invertebrates as cytotoxic compounds and inhibitors of multidrug resistance caused by P-glycoprotein” (Br J Cancer, 1996):

Target: ATP-dependent translocase ABCB1 (Homo sapiens, UniProt P08183)
Assay: TP_TRANSPORTER: inhibition of Rhodamine 123 efflux (R123: 20 uM, Lamellarin I: 10 uM) in Lo Vo/Dx cells
Assay type: functional, cell-based

ATP-dependent translocase ABCB1, sequence (P08183 whole entry): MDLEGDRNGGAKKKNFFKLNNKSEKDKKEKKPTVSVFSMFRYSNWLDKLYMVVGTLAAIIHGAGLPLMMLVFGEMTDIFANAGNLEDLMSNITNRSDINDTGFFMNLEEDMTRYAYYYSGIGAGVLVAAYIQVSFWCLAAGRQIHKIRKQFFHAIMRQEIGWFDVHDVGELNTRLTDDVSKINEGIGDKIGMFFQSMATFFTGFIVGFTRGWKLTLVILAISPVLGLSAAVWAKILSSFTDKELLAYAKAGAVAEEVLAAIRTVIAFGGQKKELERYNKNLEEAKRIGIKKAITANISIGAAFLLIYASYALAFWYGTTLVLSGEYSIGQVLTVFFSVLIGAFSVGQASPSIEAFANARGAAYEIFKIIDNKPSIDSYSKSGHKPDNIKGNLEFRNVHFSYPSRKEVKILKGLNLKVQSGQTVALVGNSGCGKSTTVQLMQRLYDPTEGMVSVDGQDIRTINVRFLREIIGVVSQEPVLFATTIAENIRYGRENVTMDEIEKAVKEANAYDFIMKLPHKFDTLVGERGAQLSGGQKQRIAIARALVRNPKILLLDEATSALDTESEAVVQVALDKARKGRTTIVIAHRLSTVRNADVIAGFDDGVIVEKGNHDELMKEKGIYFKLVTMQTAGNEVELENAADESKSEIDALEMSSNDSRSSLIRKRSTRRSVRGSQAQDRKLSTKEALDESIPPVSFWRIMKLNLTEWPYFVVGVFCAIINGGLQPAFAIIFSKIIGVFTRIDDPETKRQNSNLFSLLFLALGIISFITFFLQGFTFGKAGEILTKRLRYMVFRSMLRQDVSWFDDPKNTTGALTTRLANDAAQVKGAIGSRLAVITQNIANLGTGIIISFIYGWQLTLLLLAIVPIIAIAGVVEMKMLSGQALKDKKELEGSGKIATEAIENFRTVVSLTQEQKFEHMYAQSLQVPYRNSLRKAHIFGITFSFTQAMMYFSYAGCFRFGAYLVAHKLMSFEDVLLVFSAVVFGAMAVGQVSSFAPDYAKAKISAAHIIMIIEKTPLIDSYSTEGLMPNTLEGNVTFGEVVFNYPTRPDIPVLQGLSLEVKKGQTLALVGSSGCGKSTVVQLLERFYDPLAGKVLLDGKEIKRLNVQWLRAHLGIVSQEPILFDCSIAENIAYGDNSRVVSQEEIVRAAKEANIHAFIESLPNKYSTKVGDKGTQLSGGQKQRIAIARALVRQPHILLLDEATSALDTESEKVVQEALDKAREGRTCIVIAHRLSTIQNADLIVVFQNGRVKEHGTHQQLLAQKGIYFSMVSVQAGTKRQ

## COc1cc2c(cc1O)OCc1c-2c(-c2ccc(OC)c(OC)c2)c2n1CCc1c-2cc(OC)c(OC)c1OC [LAMELLARIN I]
  Activity: inhibitor [+]
